Laboratory results: the NIST ThermoML archive (doi:10.1016/j.fluid.2010.04.018)
Numbers after ± are expanded uncertainties.

Test: xn = mol fraction of the nth substance listed
Conditions: Liquid, Vibrating tube method

C1CCOC1 [tetrahydrofuran] + O=C=O
mass density (298.15 K, x2 = 0.388): 906.5 ± 0.2 kg/m3 | mass density (298.15 K, x2 = 0.47): 910.1 ± 0.2 kg/m3 | mass density (298.15 K, x2 = 0.588): 912.1 ± 0.2 kg/m3 | mass density (298.15 K, x2 = 0.703): 906.9 ± 0.3 kg/m3 | mass density (298.15 K, x2 = 0.828): 883.3 ± 0.3 kg/m3 | mass density (298.15 K, x2 = 0.941): 819.3 ± 1.5 kg/m3 | mass density (298.15 K, x2 = 0.983): 763.3 ± 0.5 kg/m3 | mass density (313.15 K, x2 = 0.301): 879.8 ± 0.2 kg/m3 | mass density (313.15 K, x2 = 0.428): 883.6 ± 0.2 kg/m3 | mass density (313.15 K, x2 = 0.542): 883 ± 0.2 kg/m3 | mass density (313.15 K, x2 = 0.665): 873.1 ± 0.4 kg/m3 | mass density (313.15 K, x2 = 0.788): 842.6 ± 0.8 kg/m3 | mass density (313.15 K, x2 = 0.881): 787.7 ± 1.6 kg/m3 | mass density (313.15 K, x2 = 0.921): 737.7 ± 3 kg/m3 | mass density (313.15 K, x2 = 0.938): 699.9 ± 4.5 kg/m3
